Test [1] deals with Giardia intestinalis. Description: Antiprotozoal activity against Giardia intestinalis. To be noted: Giardia duodenalis. The class given is functional, organism-based.
Test [2] relates to Trichomonas vaginalis. Description: Antiprotozoal activity against Trichomonas vaginalis. It is filed as functional, organism-based.

Broadly, the IC50 is the concentration at which inhibition is half-maximal. A low value points to greater potency in that assay. As to `FC(F)(F)C(F)(F)c1nc2cc(Cl)c(Cl)cc2[nH]1`, the IC50 in test [1] was 562 nM; in test [2], 302 nM.

Consider `CCCSc1ccc2nc(C(F)(F)F)n(C)c2c1`, for which the IC50 in test [1] is 1410 nM; in test [2], 2570 nM.

Turning to `O=[N+]([O-])c1cc2nc(C(F)(F)F)[nH]c2cc1[N+](=O)[O-]`, the figures for the IC50 in test [1] and in test [2] were 240 nM and 575 nM, respectively.

As to `CCCSc1ccc2c(c1)nc(C(F)(F)F)n2C`, the results for the IC50 in test [1] and in test [2] were 10500 nM and 200 nM, respectively.

Consider `FC(F)(F)c1nc2c(Br)c(Br)c(Br)c(Br)c2[nH]1`, for which the IC50 is 56.2 nM in test [1] and 2 nM in test [2].

For the compound `FC(F)(F)C(F)(F)c1nc2c(Br)c(Br)c(Br)c(Br)c2[nH]1`, the IC50 was 22.9 nM in test [1] and 10000 nM in test [2].

With `Cn1c(C(F)(F)F)nc2ccc(C(=O)c3ccccc3)cc21`, the IC50 in test [1] is 1290 nM; in test [2], 10700 nM.

With `Cn1c(C(F)(F)F)nc2cc(C(=O)c3ccccc3)ccc21`, the IC50 is 1100 nM in test [1] and 29500 nM in test [2].

Regarding `FC(F)(F)c1nc2cc(Br)c(Br)cc2[nH]1`, the IC50 was 120 nM in test [1] and 219 nM in test [2].

The values above are taken from ChEMBL document CHEMBL1268936, “Towards a systematic characterization of the antiprotozoal activity landscape of benzimidazole derivatives” (Bioorg Med Chem, 2010).
